Data taken from patent US20180185490A1 (R&D PHARMA, priority 2017, published 2018).

How the values were obtained:
[1] = Tolerance in subungual and periungual application; format: in vivo
Description: (§1) Its tolerance in subungual and periungual application is good and perfectly compatible with the desired therapeutic effect.

[2] = tested on: rat; details: by mouth; cited from earlier work
[3] = Irritation of eyes and mucous membranes; format: in vivo; details: pure or concentrated GBL
Description: as §1

[4] = tested on: DNA; details: cited from earlier work

O=C1CCCO1 [GBL, gamma-butyrolactone]
tolerance in subungual and periungual application [1]: good | LD50 [2]: 17.2 mL/kg | irritation of eyes and mucous membranes [3]: irritating to the eyes and the mucous membranes | alteration of DNA [4]: no alteration of DNA
